# Assay results taken from ChEMBL document CHEMBL4507262, “Data for DCP probe A-1596586” (2021).
# Key:
# [1] = target: Mitogen-activated protein kinase 14 (Homo sapiens) (UniProt Q16539); details: Compound concentration 1000.0 nM
# [2] = target: Serine/threonine-protein kinase Chk2 (Homo sapiens) (UniProt O96017); details: Compound concentration 1000.0 nM
# [3] = target: Mu-type opioid receptor (Homo sapiens) (UniProt P35372); details: Compound concentration 10.0 uM
# [4] = target: Dual specificity tyrosine-phosphorylation-regulated kinase 1B (Homo sapiens) (UniProt Q9Y463); details: Compound concentration 1000.0 nM
# [5] = target: Vascular endothelial growth factor receptor 1 (Homo sapiens) (UniProt P17948); details: Compound concentration 1000.0 nM
# [6] = target: Interleukin-1 receptor-associated kinase 1 (Homo sapiens) (UniProt P51617); details: Compound concentration 1000.0 nM
# [7] = target: Sigma intracellular receptor 2 (Homo sapiens, UniProt Q5BJF2); details: Compound concentration 10.0 uM
# [8] = system: Mast/stem cell growth factor receptor Kit (Homo sapiens), P10721 [L576P]; details: Compound concentration 1000.0 nM
# [9] = target: Cyclin-dependent kinase 4 (Homo sapiens) (UniProt P11802); details: Compound concentration 1000.0 nM
# [10] = target: LIM domain kinase 1 (Homo sapiens) (UniProt P53667); details: Compound concentration 1000.0 nM
# Chain of LIM domain kinase 1 (Homo sapiens) (P53667 whole entry, looked up, the tested form may be a part): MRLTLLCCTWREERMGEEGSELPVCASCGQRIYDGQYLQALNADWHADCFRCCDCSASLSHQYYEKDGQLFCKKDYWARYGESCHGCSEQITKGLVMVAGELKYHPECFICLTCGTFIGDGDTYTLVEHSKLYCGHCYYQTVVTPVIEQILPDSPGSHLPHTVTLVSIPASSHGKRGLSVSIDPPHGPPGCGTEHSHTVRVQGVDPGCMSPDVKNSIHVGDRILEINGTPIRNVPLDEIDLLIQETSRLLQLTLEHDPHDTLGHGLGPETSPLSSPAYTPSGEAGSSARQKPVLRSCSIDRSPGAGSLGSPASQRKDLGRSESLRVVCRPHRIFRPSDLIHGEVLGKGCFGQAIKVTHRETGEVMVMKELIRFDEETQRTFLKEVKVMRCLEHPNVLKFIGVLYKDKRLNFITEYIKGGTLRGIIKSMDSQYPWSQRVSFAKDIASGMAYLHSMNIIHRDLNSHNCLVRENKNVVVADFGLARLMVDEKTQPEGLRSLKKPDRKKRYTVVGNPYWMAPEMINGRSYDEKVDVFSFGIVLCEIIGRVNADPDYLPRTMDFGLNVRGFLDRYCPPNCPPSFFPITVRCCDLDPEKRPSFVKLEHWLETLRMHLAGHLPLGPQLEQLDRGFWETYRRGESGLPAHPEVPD
# [11] = system: Mast/stem cell growth factor receptor Kit (Homo sapiens), P10721 [V559D,V654A]; details: Compound concentration 1000.0 nM
# [12] = target: GABA-A receptor; alpha-1/beta-2/gamma-2 (Homo sapiens) (UniProt P14867+P47870+P18507); test: GABAA1 (h) (alpha1,beta2,gamma2) Eurofins-Cerep binding assay; format: protein-complex assay; set-up: ligand concentration 15 nM; details: filed as agonist, Compound concentration 10.0 uM
# [13] = target: Tyrosine-protein kinase ITK/TSK (Homo sapiens) (UniProt Q08881); details: Compound concentration 1000.0 nM
# [14] = target: Mitogen-activated protein kinase 1 (Homo sapiens) (UniProt P28482); details: Compound concentration 1000.0 nM
# [15] = target: Histamine H2 receptor (Homo sapiens) (UniProt P25021); test: H2 (h) Eurofins-Cerep binding assay; set-up: ligand concentration 0.075 nM; details: filed as antagonist, Compound concentration 10.0 uM
# [16] = target: Homeodomain-interacting protein kinase 2 (Homo sapiens) (UniProt Q9H2X6); details: Compound concentration 1000.0 nM
# [17] = target: Serine/threonine-protein kinase WNK4 (Homo sapiens) (UniProt Q96J92); details: Compound concentration 1000.0 nM
# [18] = target: Serine/threonine-protein kinase PLK1 (Homo sapiens) (UniProt P53350); details: Compound concentration 1000.0 nM
# [19] = target: Mitogen-activated protein kinase kinase kinase kinase 3 (Homo sapiens) (UniProt Q8IVH8); details: Compound concentration 1000.0 nM
# Chain of Mitogen-activated protein kinase kinase kinase kinase 3 (Homo sapiens) (Q8IVH8 whole entry): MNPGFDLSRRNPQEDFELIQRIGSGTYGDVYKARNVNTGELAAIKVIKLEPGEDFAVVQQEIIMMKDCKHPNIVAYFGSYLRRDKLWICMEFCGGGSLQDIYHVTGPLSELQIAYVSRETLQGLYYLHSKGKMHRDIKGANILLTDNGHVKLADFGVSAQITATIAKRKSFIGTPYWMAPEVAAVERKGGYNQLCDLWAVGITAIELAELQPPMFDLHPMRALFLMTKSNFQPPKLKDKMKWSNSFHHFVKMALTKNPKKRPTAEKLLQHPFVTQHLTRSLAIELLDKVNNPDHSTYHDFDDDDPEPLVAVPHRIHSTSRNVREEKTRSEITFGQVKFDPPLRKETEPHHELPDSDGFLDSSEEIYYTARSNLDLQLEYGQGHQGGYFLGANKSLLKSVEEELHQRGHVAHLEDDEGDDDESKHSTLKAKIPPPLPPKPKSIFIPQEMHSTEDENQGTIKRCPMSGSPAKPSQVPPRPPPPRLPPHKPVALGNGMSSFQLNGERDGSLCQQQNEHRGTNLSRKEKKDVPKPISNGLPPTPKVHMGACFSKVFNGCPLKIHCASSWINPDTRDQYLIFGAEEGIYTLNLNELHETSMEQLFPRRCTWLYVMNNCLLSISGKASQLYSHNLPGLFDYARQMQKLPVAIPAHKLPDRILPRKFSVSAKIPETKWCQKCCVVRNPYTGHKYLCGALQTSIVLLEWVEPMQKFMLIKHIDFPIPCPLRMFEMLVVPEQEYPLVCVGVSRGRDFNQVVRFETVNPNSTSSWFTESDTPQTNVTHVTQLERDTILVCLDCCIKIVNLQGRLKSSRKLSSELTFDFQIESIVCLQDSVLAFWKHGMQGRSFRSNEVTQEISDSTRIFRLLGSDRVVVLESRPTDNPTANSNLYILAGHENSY
# [20] = target: Serine/threonine-protein kinase BRSK2 (Homo sapiens) (UniProt Q8IWQ3); details: Compound concentration 1000.0 nM
# [21] = target: Serine/threonine-protein kinase 17B (Homo sapiens) (UniProt O94768); details: Compound concentration 1000.0 nM
# [22] = target: Mitogen-activated protein kinase kinase kinase 11 (Homo sapiens) (UniProt Q16584); details: Compound concentration 1000.0 nM
# [23] = target: Prostaglandin G/H synthase 1 (Homo sapiens) (UniProt P23219); test: COX1(h) Eurofins-Cerep enzyme and uptake assay; details: Compound concentration 10.0 uM
# [24] = target: Testis-specific serine/threonine-protein kinase 1 (Homo sapiens) (UniProt Q9BXA7); details: Compound concentration 1000.0 nM
# Chain of Testis-specific serine/threonine-protein kinase 1 (Homo sapiens) (Q9BXA7 whole entry): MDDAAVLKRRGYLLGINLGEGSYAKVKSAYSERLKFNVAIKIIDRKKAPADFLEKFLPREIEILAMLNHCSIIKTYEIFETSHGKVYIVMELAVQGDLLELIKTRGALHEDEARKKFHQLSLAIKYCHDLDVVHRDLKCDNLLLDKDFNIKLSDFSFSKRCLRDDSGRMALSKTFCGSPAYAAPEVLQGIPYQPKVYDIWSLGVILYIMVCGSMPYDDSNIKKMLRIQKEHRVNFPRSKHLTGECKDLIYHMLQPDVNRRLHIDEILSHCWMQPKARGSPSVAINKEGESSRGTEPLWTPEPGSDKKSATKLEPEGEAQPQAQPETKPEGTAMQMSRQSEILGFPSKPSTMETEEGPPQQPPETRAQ
# [25] = target: Mitogen-activated protein kinase 3 (Homo sapiens) (UniProt P27361); details: Compound concentration 1000.0 nM
# Chain of Mitogen-activated protein kinase 3 (Homo sapiens) (P27361 whole entry): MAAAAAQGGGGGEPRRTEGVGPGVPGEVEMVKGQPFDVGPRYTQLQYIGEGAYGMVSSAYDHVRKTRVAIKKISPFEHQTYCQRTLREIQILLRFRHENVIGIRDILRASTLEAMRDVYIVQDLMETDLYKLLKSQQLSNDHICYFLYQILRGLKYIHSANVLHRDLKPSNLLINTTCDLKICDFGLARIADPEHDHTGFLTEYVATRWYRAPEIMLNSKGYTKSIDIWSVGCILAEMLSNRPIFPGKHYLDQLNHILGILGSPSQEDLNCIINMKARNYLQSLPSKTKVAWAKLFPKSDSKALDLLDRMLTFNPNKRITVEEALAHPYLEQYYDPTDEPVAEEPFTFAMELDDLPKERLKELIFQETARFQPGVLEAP
# [26] = target: Activin receptor type-1-like (Homo sapiens) (UniProt P37023); details: Compound concentration 1000.0 nM
# [27] = system: Epidermal growth factor receptor (Homo sapiens), P00533 [T790M]; details: Compound concentration 1000.0 nM
# [28] = target: Phosphatidylinositol 5-phosphate 4-kinase type-2 gamma (Homo sapiens) (UniProt Q8TBX8); details: Compound concentration 1000.0 nM
# [29] = target: Membrane-associated tyrosine- and threonine-specific cdc2-inhibitory kinase (Homo sapiens) (UniProt Q99640); details: Compound concentration 1000.0 nM
# Chain of Membrane-associated tyrosine- and threonine-specific cdc2-inhibitory kinase (Homo sapiens) (Q99640 whole entry): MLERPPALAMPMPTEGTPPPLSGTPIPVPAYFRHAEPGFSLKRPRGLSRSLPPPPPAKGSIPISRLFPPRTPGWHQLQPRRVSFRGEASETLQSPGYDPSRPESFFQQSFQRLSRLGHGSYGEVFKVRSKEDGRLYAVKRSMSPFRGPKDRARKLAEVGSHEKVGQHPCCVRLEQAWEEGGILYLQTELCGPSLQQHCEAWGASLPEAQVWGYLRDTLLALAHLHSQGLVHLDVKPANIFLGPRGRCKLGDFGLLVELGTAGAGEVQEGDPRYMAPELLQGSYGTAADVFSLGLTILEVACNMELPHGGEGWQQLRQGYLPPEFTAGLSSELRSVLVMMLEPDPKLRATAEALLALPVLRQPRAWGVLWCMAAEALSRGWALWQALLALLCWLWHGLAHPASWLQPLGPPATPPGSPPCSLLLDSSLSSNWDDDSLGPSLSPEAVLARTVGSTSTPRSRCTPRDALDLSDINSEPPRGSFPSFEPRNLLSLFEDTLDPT
# [30] = target: RAC-alpha serine/threonine-protein kinase (Homo sapiens) (UniProt P31749); details: Compound concentration 1000.0 nM
# [31] = target: T1, 5-hydroxytryptamine receptor 3A (Homo sapiens) (UniProt P46098); test: 5-HT3 (h) Eurofins-Cerep binding assay; set-up: ligand concentration 0.5 nM; details: filed as antagonist, Compound concentration 10.0 uM
# T1 sequence (whole entry): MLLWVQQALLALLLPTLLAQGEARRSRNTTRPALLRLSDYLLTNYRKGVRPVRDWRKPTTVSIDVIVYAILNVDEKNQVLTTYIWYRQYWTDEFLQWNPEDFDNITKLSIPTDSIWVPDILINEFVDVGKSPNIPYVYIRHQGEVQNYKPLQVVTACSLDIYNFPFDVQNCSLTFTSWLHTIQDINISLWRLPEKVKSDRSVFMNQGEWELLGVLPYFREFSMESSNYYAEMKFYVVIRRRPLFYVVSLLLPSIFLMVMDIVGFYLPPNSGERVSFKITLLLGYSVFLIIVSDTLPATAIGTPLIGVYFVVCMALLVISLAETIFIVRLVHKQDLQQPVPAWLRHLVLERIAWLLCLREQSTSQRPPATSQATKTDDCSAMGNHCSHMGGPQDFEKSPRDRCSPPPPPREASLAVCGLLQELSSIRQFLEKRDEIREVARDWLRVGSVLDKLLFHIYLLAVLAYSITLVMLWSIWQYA
# [32] = target: Rho-associated protein kinase 1 (Homo sapiens) (UniProt Q13464); details: Compound concentration 1000.0 nM
# [33] = target: Tyrosine-protein kinase ZAP-70 (Homo sapiens) (UniProt P43403); details: Compound concentration 1000.0 nM
# Chain of Tyrosine-protein kinase ZAP-70 (Homo sapiens) (P43403 whole entry): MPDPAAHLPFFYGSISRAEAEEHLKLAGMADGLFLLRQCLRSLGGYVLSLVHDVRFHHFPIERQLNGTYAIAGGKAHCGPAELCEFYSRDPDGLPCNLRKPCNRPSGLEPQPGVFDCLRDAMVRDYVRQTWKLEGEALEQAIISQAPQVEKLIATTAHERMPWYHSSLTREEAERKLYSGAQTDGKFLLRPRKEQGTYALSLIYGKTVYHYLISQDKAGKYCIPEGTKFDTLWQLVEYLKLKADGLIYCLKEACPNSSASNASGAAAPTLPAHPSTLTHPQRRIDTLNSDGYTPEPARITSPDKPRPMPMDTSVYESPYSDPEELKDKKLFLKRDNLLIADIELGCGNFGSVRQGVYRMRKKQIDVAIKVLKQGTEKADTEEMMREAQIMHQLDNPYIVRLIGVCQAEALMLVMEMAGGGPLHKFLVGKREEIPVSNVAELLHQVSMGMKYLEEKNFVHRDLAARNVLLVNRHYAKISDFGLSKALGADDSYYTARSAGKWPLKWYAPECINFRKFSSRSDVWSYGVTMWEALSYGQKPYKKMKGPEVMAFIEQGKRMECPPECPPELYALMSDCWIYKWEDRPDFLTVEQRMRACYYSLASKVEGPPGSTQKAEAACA
# [34] = target: Cytoplasmic tyrosine-protein kinase BMX (Homo sapiens) (UniProt P51813); details: Compound concentration 1000.0 nM
# Chain of Cytoplasmic tyrosine-protein kinase BMX (Homo sapiens) (P51813 whole entry): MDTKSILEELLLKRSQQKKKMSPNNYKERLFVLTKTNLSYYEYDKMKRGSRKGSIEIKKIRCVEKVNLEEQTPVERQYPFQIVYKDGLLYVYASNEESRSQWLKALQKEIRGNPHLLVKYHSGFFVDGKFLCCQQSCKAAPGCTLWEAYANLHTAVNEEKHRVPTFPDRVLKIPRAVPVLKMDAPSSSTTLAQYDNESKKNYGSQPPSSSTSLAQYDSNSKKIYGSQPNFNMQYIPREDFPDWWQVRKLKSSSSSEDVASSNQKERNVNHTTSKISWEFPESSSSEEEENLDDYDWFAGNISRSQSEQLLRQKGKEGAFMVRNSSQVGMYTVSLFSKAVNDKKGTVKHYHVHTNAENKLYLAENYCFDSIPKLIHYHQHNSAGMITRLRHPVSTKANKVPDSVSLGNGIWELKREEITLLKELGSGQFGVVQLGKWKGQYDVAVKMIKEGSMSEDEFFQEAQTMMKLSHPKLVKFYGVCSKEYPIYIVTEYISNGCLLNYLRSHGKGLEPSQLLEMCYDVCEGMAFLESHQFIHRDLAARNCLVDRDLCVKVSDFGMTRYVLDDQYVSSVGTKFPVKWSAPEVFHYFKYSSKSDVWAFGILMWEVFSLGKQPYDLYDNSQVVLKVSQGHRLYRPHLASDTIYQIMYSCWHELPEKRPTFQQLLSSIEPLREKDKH
# [35] = target: Mitogen-activated protein kinase 10 (Homo sapiens) (UniProt P53779); details: Compound concentration 1000.0 nM
# [36] = target: Cyclin-dependent kinase-like 2 (Homo sapiens) (UniProt Q92772); details: Compound concentration 1000.0 nM
# [37] = system: Receptor-type tyrosine-protein kinase FLT3 (Homo sapiens), P36888 [K663Q]; details: Compound concentration 1000.0 nM
# [38] = target: Cyclin-dependent kinase 2 homolog (Plasmodium falciparum (isolate 3D7)) (UniProt P61075); details: Compound concentration 1000.0 nM
# Chain of Serine/threonine-protein kinase Chk2 (Homo sapiens) (O96017 whole entry): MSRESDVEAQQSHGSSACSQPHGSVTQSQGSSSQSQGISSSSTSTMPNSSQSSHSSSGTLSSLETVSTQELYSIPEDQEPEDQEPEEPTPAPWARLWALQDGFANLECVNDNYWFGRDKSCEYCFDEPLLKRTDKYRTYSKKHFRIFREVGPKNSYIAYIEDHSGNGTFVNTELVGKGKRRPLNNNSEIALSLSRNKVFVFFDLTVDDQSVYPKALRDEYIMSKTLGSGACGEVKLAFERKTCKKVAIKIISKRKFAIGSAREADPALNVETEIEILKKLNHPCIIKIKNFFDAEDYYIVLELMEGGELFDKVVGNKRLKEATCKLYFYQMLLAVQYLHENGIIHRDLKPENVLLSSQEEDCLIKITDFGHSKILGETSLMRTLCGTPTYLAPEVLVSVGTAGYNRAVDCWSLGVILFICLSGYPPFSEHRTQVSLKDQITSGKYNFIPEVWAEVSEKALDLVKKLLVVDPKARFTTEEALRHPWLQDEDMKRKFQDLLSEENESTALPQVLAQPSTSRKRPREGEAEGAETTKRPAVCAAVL
# Chain of Mu-type opioid receptor (Homo sapiens) (P35372 whole entry): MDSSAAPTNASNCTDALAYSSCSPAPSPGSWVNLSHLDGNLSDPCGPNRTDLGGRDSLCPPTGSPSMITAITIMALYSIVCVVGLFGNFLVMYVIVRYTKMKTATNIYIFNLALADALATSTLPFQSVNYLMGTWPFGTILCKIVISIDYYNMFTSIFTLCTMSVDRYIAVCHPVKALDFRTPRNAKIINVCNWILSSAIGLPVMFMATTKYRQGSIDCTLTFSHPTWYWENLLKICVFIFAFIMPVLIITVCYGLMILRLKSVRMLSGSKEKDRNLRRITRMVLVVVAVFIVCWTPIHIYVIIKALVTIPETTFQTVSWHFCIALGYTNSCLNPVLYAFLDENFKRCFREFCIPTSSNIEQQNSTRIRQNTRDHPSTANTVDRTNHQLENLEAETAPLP
Structure (SMILES),residual activity [1],residual activity [2],inhibition [3],residual activity [4],residual activity [5],residual activity [6],inhibition [7],residual activity [8],residual activity [9],residual activity [10],residual activity [11],% Inhibition of Control Specific Binding (Mean n=2) [12],residual activity [13],residual activity [14],% Inhibition of Control Specific Binding (Mean n=2) [15],residual activity [16],residual activity [17],residual activity [18],residual activity [19],residual activity [20],further results
COc1ccc2c(c1)O[C@@H](c1ccc(OC)c(OC)c1)C[C@H]2NC(=O)C1(c2ccc3c(c2)OC(F)(F)O3)CC1 [A-1596586],99%,84%,6.01%,100%,100%,80%,85.8%,92%,95%,100%,100%,-27.5%,86%,100%,-18.2%,96%,85%,70%,90%,100%,residual activity [21]: 100%; residual activity [22]: 100%; % Inhibition of Control Values (Mean n=2) [23]: -7.9%; residual activity [24]: 100%; residual activity [25]: 89%; residual activity [26]: 97%; residual activity [27]: 82%; residual activity [28]: 83%; residual activity [29]: 90%; residual activity [30]: 100%; % Inhibition of Control Specific Binding (Mean n=2) [31]: -3%; residual activity [32]: 89%; residual activity [33]: 71%; residual activity [34]: 91%; residual activity [35]: 99%; residual activity [36]: 100%; residual activity [37]: 100%; residual activity [38]: 84%
COc1ccc2c(c1)O[C@H](c1ccc(OC)c(OC)c1)C[C@@H]2NC(=O)C1(c2ccc3c(c2)OC(F)(F)O3)CC1 [A-1596584],90%,100%,4.18%,91%,100%,93%,85.3%,100%,100%,98%,100%,-86.2%,100%,99%,-14.1%,98%,83%,83%,100%,88%,residual activity [21]: 100%; residual activity [22]: 100%; % Inhibition of Control Values (Mean n=2) [23]: -6.7%; residual activity [24]: 100%; residual activity [25]: 100%; residual activity [26]: 90%; residual activity [27]: 87%; residual activity [28]: 83%; residual activity [29]: 100%; residual activity [30]: 63%; % Inhibition of Control Specific Binding (Mean n=2) [31]: 0.8%; residual activity [32]: 84%; residual activity [33]: 93%; residual activity [34]: 100%; residual activity [35]: 100%; residual activity [36]: 100%; residual activity [37]: 100%; residual activity [38]: 92%
